# Results: ChEMBL document CHEMBL5120922, “Discovery, Optimization, and Evaluation of Potent and Selective PI3Kδ-γ Dual Inhibitors for the Treatment of B-cell Malignancies” (J Med Chem, 2022)
# Assays:
# [1] = tested on: DOHH-2; test: Antiproliferative activity against human DOHH-2 cells assessed as cell growth inhibition measured after 72 hrs by MTT assay; assay type: functional, cell-based; details: DOHH-2, 72 h
# [2] = tested on: SUD4; test: Antiproliferative activity against human SU-DHL-4 cells assessed as cell growth inhibition measured after 72 hrs by MTT assay; assay type: functional, cell-based; details: SU-DHL-4, 72 h
# [3] = tested on: SU-DHL-6; test: Antiproliferative activity against human SU-DHL-6 cells assessed as cell growth inhibition measured after 72 hrs by MTT assay; assay type: functional, cell-based; details: SU-DHL-6, 72 h
# [4] = target: Phosphatidylinositol 4,5-bisphosphate 3-kinase catalytic subunit gamma isoform (Homo sapiens, UniProt P48736); test: Inhibition of N-terminal His6-tagged recombinant full length human PI3Kgamma expressed in baculovirus infected Sf21 insect cells at 0.1 uM by HTRF assay relative to control
# [5] = target: Phosphatidylinositol 4,5-bisphosphate 3-kinase catalytic subunit beta isoform (Homo sapiens, UniProt P42338); test: Inhibition of N-terminal His6-tagged recombinant full length human PI3Kbeta expressed in baculovirus infected Sf21 insect cells at 1 uM by HTRF assay relative to control
# [6] = target: T1, Phosphatidylinositol 4,5-bisphosphate 3-kinase catalytic subunit delta isoform (Homo sapiens) (UniProt O00329); test: Inhibition of N-terminal His6-tagged recombinant full length human PI3Kdelta expressed in baculovirus infected Sf21 insect cells at 0.1 uM by HTRF assay relative to control
# T1 sequence (whole entry): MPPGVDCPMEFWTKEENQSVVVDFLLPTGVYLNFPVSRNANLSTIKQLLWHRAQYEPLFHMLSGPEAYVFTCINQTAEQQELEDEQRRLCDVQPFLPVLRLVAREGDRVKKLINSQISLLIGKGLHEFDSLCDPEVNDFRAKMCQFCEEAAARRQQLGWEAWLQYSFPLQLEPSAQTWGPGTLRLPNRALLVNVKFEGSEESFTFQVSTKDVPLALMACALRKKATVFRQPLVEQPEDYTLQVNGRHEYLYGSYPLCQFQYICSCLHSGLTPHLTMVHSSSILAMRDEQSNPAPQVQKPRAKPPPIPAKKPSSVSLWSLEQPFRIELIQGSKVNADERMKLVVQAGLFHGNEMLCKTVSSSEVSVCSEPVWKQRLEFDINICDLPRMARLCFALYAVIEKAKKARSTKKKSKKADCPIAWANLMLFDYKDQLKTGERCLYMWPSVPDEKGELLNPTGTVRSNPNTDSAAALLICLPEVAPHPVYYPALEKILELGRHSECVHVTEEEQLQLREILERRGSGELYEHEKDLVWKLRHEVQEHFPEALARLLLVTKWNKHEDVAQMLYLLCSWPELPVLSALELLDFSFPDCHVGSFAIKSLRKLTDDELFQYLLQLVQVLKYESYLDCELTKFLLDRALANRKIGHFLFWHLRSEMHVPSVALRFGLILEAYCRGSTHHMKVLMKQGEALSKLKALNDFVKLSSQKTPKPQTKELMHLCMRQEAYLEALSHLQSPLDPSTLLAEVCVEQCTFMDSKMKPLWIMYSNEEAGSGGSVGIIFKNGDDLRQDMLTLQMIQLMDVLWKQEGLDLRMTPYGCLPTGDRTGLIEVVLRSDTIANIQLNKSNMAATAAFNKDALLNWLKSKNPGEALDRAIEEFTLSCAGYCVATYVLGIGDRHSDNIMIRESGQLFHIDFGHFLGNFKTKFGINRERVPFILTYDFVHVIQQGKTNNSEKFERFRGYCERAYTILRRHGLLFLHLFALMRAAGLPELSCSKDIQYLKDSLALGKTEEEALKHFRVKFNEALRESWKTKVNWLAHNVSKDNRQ
# [7] = target: Phosphatidylinositol 4,5-bisphosphate 3-kinase catalytic subunit alpha isoform (Homo sapiens, UniProt P42336); test: Inhibition of N-terminal His6-tagged recombinant full length human PI3Kalpha expressed in baculovirus infected Sf21 insect cells at 1 uM by HTRF assay relative to control
# Phosphatidylinositol 4,5-bisphosphate 3-kinase catalytic subunit alpha isoform, sequence (P42336 whole entry, canonical isoform): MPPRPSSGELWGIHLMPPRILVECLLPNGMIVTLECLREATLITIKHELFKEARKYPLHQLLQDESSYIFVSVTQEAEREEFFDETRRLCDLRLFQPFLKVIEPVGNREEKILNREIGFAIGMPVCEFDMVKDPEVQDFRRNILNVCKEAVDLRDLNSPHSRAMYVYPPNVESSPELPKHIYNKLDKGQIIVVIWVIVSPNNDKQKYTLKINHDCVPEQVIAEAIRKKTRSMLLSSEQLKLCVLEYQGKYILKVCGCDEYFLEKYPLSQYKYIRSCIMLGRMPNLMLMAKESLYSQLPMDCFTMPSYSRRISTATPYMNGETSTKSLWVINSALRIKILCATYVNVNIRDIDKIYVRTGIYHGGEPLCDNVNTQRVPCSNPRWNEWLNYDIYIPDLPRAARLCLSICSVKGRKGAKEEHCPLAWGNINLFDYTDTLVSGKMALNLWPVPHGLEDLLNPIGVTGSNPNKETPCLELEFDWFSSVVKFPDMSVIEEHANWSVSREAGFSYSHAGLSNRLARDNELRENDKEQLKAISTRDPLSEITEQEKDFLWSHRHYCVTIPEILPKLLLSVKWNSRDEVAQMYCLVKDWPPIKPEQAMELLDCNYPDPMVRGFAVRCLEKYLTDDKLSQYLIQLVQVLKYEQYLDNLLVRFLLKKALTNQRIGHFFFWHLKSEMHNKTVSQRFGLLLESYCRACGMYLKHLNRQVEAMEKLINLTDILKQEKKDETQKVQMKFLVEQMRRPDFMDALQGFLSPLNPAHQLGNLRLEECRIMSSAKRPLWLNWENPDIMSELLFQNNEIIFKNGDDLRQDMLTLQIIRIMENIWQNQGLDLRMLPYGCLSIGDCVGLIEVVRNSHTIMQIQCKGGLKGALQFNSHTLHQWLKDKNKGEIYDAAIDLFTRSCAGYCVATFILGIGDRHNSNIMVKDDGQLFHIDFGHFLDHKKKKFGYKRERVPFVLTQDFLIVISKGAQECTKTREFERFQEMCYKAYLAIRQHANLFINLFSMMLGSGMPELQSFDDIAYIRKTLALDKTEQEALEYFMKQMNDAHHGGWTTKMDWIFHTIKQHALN
# Phosphatidylinositol 4,5-bisphosphate 3-kinase catalytic subunit beta isoform, sequence (P42338 whole entry, looked up, canonical isoform): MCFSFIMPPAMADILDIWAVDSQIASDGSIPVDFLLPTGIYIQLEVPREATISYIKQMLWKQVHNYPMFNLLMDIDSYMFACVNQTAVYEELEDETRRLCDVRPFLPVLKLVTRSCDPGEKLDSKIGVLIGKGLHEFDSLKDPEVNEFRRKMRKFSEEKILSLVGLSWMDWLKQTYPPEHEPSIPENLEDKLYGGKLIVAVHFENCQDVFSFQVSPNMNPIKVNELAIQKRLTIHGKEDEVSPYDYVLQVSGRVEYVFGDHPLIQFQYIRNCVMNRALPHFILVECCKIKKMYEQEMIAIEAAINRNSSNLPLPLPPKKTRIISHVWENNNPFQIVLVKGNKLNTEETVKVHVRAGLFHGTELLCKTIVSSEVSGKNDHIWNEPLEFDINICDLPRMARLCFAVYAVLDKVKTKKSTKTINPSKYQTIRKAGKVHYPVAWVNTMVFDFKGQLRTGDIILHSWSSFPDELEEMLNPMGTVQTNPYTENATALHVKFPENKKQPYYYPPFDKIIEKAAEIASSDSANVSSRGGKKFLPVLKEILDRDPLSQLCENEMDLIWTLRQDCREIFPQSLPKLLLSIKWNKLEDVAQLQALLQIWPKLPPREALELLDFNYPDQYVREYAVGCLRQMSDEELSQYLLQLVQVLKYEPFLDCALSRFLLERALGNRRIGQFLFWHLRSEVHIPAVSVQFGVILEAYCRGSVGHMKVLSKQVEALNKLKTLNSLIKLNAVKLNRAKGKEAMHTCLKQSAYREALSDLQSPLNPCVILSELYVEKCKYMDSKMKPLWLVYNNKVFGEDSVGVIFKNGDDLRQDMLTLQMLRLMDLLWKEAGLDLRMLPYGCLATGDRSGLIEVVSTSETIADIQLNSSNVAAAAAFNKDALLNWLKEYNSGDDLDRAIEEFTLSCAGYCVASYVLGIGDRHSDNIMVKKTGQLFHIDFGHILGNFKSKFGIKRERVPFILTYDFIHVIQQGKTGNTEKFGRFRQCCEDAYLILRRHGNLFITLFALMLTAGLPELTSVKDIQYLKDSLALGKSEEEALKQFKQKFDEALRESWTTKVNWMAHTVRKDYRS
# Phosphatidylinositol 4,5-bisphosphate 3-kinase catalytic subunit gamma isoform, sequence (P48736 whole entry, looked up, canonical isoform): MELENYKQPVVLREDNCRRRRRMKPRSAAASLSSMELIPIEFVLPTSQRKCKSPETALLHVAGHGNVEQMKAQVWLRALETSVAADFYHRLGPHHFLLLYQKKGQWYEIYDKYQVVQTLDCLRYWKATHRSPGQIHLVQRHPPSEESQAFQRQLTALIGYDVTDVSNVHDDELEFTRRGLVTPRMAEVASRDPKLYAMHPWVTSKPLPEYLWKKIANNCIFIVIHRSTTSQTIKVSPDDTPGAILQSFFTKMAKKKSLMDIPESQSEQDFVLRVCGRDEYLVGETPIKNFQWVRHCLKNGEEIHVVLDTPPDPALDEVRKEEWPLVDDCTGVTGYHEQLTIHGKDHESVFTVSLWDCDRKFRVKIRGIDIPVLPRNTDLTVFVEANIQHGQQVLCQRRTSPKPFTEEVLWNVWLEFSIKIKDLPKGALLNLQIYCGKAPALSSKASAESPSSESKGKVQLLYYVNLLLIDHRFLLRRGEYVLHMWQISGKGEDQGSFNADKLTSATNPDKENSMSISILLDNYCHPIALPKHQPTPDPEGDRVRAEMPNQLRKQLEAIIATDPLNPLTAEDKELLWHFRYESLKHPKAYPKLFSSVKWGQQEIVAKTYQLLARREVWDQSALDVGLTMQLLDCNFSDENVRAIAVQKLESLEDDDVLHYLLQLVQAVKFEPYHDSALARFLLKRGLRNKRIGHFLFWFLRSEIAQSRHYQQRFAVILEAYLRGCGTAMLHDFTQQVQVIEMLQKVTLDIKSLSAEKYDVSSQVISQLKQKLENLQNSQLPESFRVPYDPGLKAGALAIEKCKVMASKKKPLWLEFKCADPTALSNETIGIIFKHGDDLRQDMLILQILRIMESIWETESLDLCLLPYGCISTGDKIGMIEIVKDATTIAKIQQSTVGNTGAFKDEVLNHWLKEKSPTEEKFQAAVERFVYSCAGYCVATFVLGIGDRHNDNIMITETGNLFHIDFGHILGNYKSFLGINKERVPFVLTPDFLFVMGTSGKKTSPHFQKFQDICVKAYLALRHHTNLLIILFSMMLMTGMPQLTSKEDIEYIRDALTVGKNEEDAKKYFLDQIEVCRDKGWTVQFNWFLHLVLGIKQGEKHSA
SMILES,IC50 [1] [nM],IC50 [2] [nM],IC50 [3] [nM],inhibition [4] [%],inhibition [5] [%],inhibition [6] [%],inhibition [7] [%]
C[C@H]1CC[C@@H](c2nc3ccc(F)cc3c(=O)n2-c2cccnc2)N1c1nc(N)nc(N)c1C#N,1890,1220,2660,91,98,43,63
C[C@H]1CC[C@@H](c2nc3c(F)cccc3c(=O)n2-c2cccnc2)N1c1nc(N)nc(N)c1C#N,440,620,920,52,23,6,30
C[C@H]1CC[C@@H](c2nc3ccc(Cl)cc3c(=O)n2-c2cccnc2)N1c1nc(N)nc(N)c1C#N,1050,900,770,89,100,89,56
COc1ccc(-c2cccc3nc([C@@H]4CC[C@H](C)N4c4nc(N)nc(N)c4C#N)n(-c4ccccc4)c(=O)c23)cn1,630,600,390,29,77,,14
C[C@H]1CC[C@@H](c2nc3cccc(-c4cnn(C5CC5)c4)c3c(=O)n2-c2cccnc2)N1c1nc(N)nc(N)c1C#N,2130,700,480,34,63,21,31
Cc1ccc(C#Cc2cccc3nc([C@@H]4CC[C@H](C)N4c4nc(N)nc(N)c4C#N)n(-c4ccccc4)c(=O)c23)cc1,680,1230,1720,80,78,56,35
C[C@H]1CC[C@@H](c2nc3cc(F)ccc3c(=O)n2-c2cccnc2)N1c1nc(N)nc(N)c1C#N,570,580,1710,70,44,7,39
Cc1cccc2nc([C@@H]3CC[C@H](C)N3c3nc(N)nc(N)c3C#N)n(-c3cccnc3)c(=O)c12,130,50,230,21,-3,-2,20
Cc1ccccc1C#Cc1cccc2nc([C@@H]3CC[C@H](C)N3c3nc(N)nc(N)c3C#N)n(-c3ccccc3)c(=O)c12,760,3580,2470,65,78,62,23
Cc1cccc(C#Cc2cccc3nc([C@@H]4CC[C@H](C)N4c4nc(N)nc(N)c4C#N)n(-c4ccccc4)c(=O)c23)c1,4130,3310,2620,83,69,64,35
C[C@H]1CC[C@@H](c2nc3cccc(-c4cncnc4)c3c(=O)n2-c2ccccc2)N1c1nc(N)nc(N)c1C#N,1940,320,290,57,49,,26
COc1ccc(-c2cccc3nc([C@@H]4CC[C@H](C)N4c4nc(N)nc(N)c4C#N)n(-c4ccccc4)c(=O)c23)cc1,1140,890,700,41,44,,5
C[C@H](Nc1ncnc2nc[nH]c12)c1cc2cccc(Cl)c2c(=O)n1-c1ccccc1 [DUVELISIB],200,270,390,,,,
C[C@H]1CC[C@@H](c2nc3cccc(-c4cnn(C(F)F)c4)c3c(=O)n2-c2ccccc2)N1c1nc(N)nc(N)c1C#N,670,330,470,20,46,,26
